Molecular target: T1, human recombinant FKBP12 (Homo sapiens, UniProt P62942)
T1 construct: purchased Sigma F-5398
Test: Test 1: immunophilin FKBP12 rotamase (peptidylprolyl isomerase) inhibiting activity
Assay type: biochemical
Details: 12 nM human recombinant FKBP12, substrate succinyl-Ala-Phe-Pro-Phe-paranitroanilide 48 μM, 4° C.; read-out: PKBP12 rotamase inhibiting activity IC50
Protocol: (Test 1) Test for Measuring Immunophilin FKBP12 Rotamase Activity
The rotamase (peptidylprolyl isomerase) inhibiting activity of each test compound was measured by a known method (Harding et al., Nature 341, 758-760, 1989; Holts et al., J. Am. Chem. Soc. 115, 9925-9938, 1993.) To be more specific, a plastic cuvette was charged with 35 mM HEPES (pH 7.8), 12 nM human recombinant FKBP12 (Sigma, F-5398), 0.4 mg/mL α-chymotrypsin, and a test compound dissolved in DMSO at varying concentrations (DMSO's final concentration was 0.1%.) Subsequently, 24 mM of the substrate peptide, succinyl-Ala-Phe-Pro-Phe-paranitroanilide, as dissolved in trifluoroethanol containing 500 mM of LiCl was added to give a final concentration of 48 μM, whereupon reaction started. The reaction was carried out at 4° C. and the change in absorbance at 390 nm accompanying the liberation of the paranitroaniline product was monitored. A calculated initial rate minus the corresponding value in the absence of the enzyme was used as an index of rotamase activity. The rotamase inhibiting activity of a test compound was expressed in relative values (%) with respect to the control value of rotamase activity in the absence of the compound, and the concentration of the compound at which it was capable of inhibiting rotamase activity by 50% was calculated as an IC50 value from its concentration response curve.

T1 sequence (P62942 whole entry): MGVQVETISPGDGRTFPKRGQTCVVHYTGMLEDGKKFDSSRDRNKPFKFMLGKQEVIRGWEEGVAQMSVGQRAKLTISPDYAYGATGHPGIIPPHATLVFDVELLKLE

IC50 | Structure (SMILES)
500 to 1000 nM | CC1(C)CC(C)(C)CC(O)(C(F)(F)C(=O)N2CCC[C@H]2c2nnc(Cc3cccnc3)o2)C1 [Compound 34]
45 nM | CC1(C)CC(C)(C)CC(O)(C(F)(F)C(=O)N2CCC[C@H]2c2cc(CCc3cccnc3)on2)C1 [Compound 35]
500 to 1000 nM | COc1ccc(OCc2cc([C@@H]3CCCN3C(=O)C(F)(F)C3(O)CC(C)(C)CC(C)(C)C3)on2)cc1OC [Compound 10, (S)-1-(2-(3-((3,4-Dimethoxyphenoxy)methyl)isoxazol-5-yl)pyrrolidin-1-yl)-2,2-difluoro-2-(1-hydroxy-3,3,5,5-tetramethylcyclohexyl)ethanone]
276 nM | COc1cc(OCc2nnc([C@@H]3CCCN3C(=O)C(F)(F)C3(O)CC(C)(C)CC(C)(C)C3)o2)cc(OC)c1OC [Compound 20]
500 to 1000 nM | COc1ccc(OCc2noc([C@@H]3CCCN3C(=O)C(F)(F)C3(O)CC(C)(C)CC(C)(C)C3)n2)cc1OC [Compound 3, (S)-1-(2-(3-((3,4-Dimethoxyphenoxy)methyl)-1,2,4-oxadiazol-5-yl)pyrrolidin-1-yl)-2,2-difluoro-2-(1-hydroxy-3,3,5,5-tetramethylcyclohexyl)ethanone]
101 nM | CC1(C)CC(C)(C)CC(O)(C(F)(F)C(=O)N2CCC[C@H]2c2cc(CNS(=O)(=O)c3ccccc3)on2)C1 [Compound 45, (S)—N-((3-(1-(2,2-Difluoro-2-(1-hydroxy-3,3,5,5-tetramethylcyclohexyl)acetyl)pyrrolidin-2-yl)isoxazol-5-yl)methyl)benzenesulfonamide]
254 nM | CC1(C)CC(C)(C)CC(O)(C(F)(F)C(=O)N2CCC[C@H]2c2cc(CN3CCOCC3)on2)C1 [Compound 47]
500 to 1000 nM | CN(C)Cc1nnc([C@@H]2CCCN2C(=O)C(F)(F)C2(O)CC(C)(C)CC(C)(C)C2)o1 [Compound 39, (S)-1-(2-(5-((Dimethylamino)methyl)-1,3,4-oxadiazol-2-yl)pyrrolidin-1-yl)-2,2-difluoro-2-(1-hydroxy-3,3,5,5-tetramethylcyclohexyl)ethanone]
1000 to 2000 nM | CC1(C)CC(C)(C)CC(O)(C(F)(F)C(=O)N2CCC[C@H]2c2nnc(CO)o2)C1 [Compound 22, (S)-2,2-Difluoro-2-(1-hydroxy-3,3,5,5-tetramethylcyclohexyl)-1-(2-(5-(hydroxymethy)-1,3,4-oxadiazol-2-yl)pyrrolidin-1-yl)ethanone]
500 to 1000 nM | COc1ccc(CCCc2nnc([C@@H]3CCCN3C(=O)C(F)(F)C3(O)CC(C)(C)CC(C)(C)C3)o2)cc1OC [Compound 14]
241 nM | Cc1ccc(OCc2cc([C@@H]3CCCN3C(=O)C(F)(F)C3(O)CC(C)(C)CC(C)(C)C3)no2)cc1 [Compound 65]
1000 to 2000 nM | CC1(C)CC(C)(C)CC(O)(C(F)(F)C(=O)N2CCC[C@H]2c2nnc(COc3cncnc3)o2)C1 [Compound 36]
434 nM | COc1ccc(-c2nnc([C@@H]3CCCN3C(=O)C(F)(F)C3(O)CC(C)(C)CC(C)(C)C3)o2)cc1OC [Compound 13]
142 nM | COc1ccc(Cc2nnc([C@@H]3CCCN3C(=O)C(F)(F)C3(O)CC(C)(C)CC(C)(C)C3)o2)cc1OC [Compound 16]
500 to 1000 nM | COc1cccc(OCc2nnc([C@@H]3CCCN3C(=O)C(F)(F)C3(O)CC(C)(C)CC(C)(C)C3)o2)c1 [Compound 26]
376 nM | CC1(C)CC(C)(C)CC(O)(C(F)(F)C(=O)N2CCC[C@H]2c2cc(Cn3ccccc3=O)on2)C1 [Compound 60, (S)-1-((3-(1-(2,2-Difluoro-2-(1-hydroxy-3,3,5,5-tetramethylcyclohexyl)acetyl)pyrrolidin-2-yl)isoxazol-5-yl)methyl)pyridin-2(1H)-one]
500 to 1000 nM | CC1(C)CC(C)(C)CC(O)(C(F)(F)C(=O)N2CCC[C@H]2c2nnc(CNC(=O)c3ccccc3)o2)C1 [Compound 38, (S)—N-((5-(1-(2,2-Difluoro-2-(1-hydroxy-3,3,5,5-tetramethylcyclohexyl)acetyl)pyrrolidin-2-yl)-1,3,4-oxadiazol-2-yl)methyl)benzamide]
500 to 1000 nM | COc1ccc(OCc2cc([C@@H]3CCCN3C(=O)C(F)(F)C3(O)CC(C)(C)CC(C)(C)C3)nn2C)cc1OC [Compound 9, (S)-1-(2-(5-((3,4-Dimethoxyphenoxy)methyl)-1-methyl-1H-pyrazol-3-yl)pyrrolidin-1-yl)-2,2-difluoro-2-(1-hydroxy-3,3,5,5-tetramethylcyclohexyl)ethanone]
94 nM | CC1(C)CC(C)(C)CC(O)(C(F)(F)C(=O)N2CCC[C@H]2c2cc(CNC(=O)Cc3ccccc3)on2)C1 [Compound 48]

IC50 | Structure (SMILES)
1000 to 2000 nM | CC1(C)CC(C)(C)CC(O)(C(F)(F)C(=O)N2CCC[C@H]2c2nnc(CN)o2)C1 [Compound 37]
447 nM | CC1(C)CC(C)(C)CC(O)(C(F)(F)C(=O)N2CCC[C@H]2c2cc(CN)on2)C1 [Compound 42, (S)-1-(2-(5-(Aminomethyl)isoxazol-3-yl)pyrrolidin-1-yl)-2,2-difluoro-2-(1-hydroxy-3,3,5,5-tetramethylcyclohexyl)ethanone]
210 nM | CC1(C)CC(C)(C)CC(O)(C(F)(F)C(=O)N2CCC[C@H]2c2cc(Cn3cnccc3=O)on2)C1 [Compound 62, (S)-3-((3-(1-(2,2-Difluoro-2-(1-hydroxy-3,3,5,5-tetramethylcyclohexyl)acetyl)pyrrolidin-2-yl)isoxazol-5-yl)methyl)pyrimidin-4(3H)-one]
150 nM | COc1ccc(OCc2cc([C@@H]3CCCN3C(=O)C(F)(F)C3(O)CC(C)(C)CC(C)(C)C3)no2)cn1 [Compound 41, (S)-2,2-Difluoro-2-(1-hydroxy-3,3,5,5-tetramethylcyclohexyl)-1-(2-(5-(((6-methoxypyridin-3-yl)oxy)methyl)isoxazol-3-yl)pyrrolidin-1-yl)ethanone]
149 nM | COc1ccc(OCc2cc([C@@H]3CCCN3S(=O)(=O)CC3CCCCC3)no2)cc1OC [Compound 43, (S)-3-(1-((Cyclohexylmethyl)sulfonyl)pyrrolidin-2-yl)-5-((3,4-dimethoxyphenoxy)methyl)isoxazole]
62 nM | CC1(C)CC(C)(C)CC(O)(C(F)(F)C(=O)N2CCC[C@H]2c2nnc(COc3ccccc3)o2)C1 [Compound 29, (S)-2,2-Difluoro-2-(1-hydroxy-3,3,5,5-tetramethylcyclohexyl)-1-(2-(5-(phenoxymethyl)-1,3,4-oxadiazol-2-yl)pyrrolidin-1-yl)ethanone]
220 nM | COc1ccc(OCc2nnc([C@@H]3CCCN3C(=O)C(F)(F)C3(O)CC(C)(C)CC(C)(C)C3)o2)c(OC)c1 [Compound 30]
351 nM | COc1ccc(Oc2nnc([C@@H]3CCCN3C(=O)C(F)(F)C3(O)CC(C)(C)CC(C)(C)C3)o2)cc1OC [Compound 28]
117 nM | COc1ccc(C(=O)NCc2cc([C@@H]3CCCN3C(=O)C(F)(F)C3(O)CC(C)(C)CC(C)(C)C3)no2)cc1OC [Compound 50]
500 to 1000 nM | CC1(C)CC(C)(C)CC(O)(C(F)(F)C(=O)N2CCC[C@H]2c2cc(CO)on2)C1 [Compound 18, (S)-2,2-Difluoro-2-(1-hydroxy-3,3,5,5-tetramethylcyclohexyl)-1-(2-(5-(hydroxymethyl)isoxazol-3-yl)pyrrolidin-1-yl)ethanone]
165 nM | CC1(C)CC(C)(C)CC(O)(C(F)(F)C(=O)N2CCC[C@H]2c2nnc(COc3ccc4c(c3)OCO4)o2)C1 [Compound 32]
229 nM | CC1(C)CC(C)(C)CC(O)(C(F)(F)C(=O)N2CCC[C@H]2c2nnc(COc3ccc(CO)cc3)o2)C1 [Compound 19]
270 nM | COc1ccc(CCc2nnc([C@@H]3CCCN3C(=O)C(F)(F)C3(O)CC(C)(C)CC(C)(C)C3)o2)cc1OC [Compound 12]
356 nM | CC1(C)CC(C)(C)CC(O)(C(F)(F)C(=O)N2CCC[C@H]2c2nnc(COc3cccnc3)o2)C1 [Compound 17]
64 nM | COc1cc(OCc2cc([C@@H]3CCCN3C(=O)C(F)(F)C3(O)CC(C)(C)CC(C)(C)C3)no2)cc(OC)c1OC [Compound 21, (S)-2,2-Difluoro-2-(1-hydroxy-3,3,5,5-tetramethylcyclohexyl)-1-(2-(5-((3,4,5-trimethoxyphenoxy)methyl)isoxazol-3-yl)pyrrolidin-1-yl)ethanone]
119 nM | COc1ccc(OCc2nc([C@@H]3CCCN3C(=O)C(F)(F)C3(O)CC(C)(C)CC(C)(C)C3)n[nH]2)cc1OC [Compound 5, (S)-1-(2-(5-((3,4-Dimethoxyphenoxy)methyl)-4H-1,2,4-triazol-3-yl)pyrrolidin-1-yl)-2,2-difluoro-2-(1-hydroxy-3,3,5,5-tetramethylcyclohexyl)ethanone]
259 nM | CC1(C)CC(C)(C)CC(O)(C(F)(F)C(=O)N2CCC[C@H]2c2nnc(COc3ccc4cc[nH]c4c3)o2)C1 [Compound 33]
328 nM | CC1(C)CC(C)(C)CC(O)(C(F)(F)C(=O)N2CCC[C@H]2c2cc(COc3cccnn3)on2)C1 [Compound 56, (S)-2,2-Difluoro-2-(1-hydroxy-3,3,5,5-tetramethylcyclohexyl)-1-(2-(5-((pyridazin-3-yloxy)methyl)isoxazol-3-yl)pyrrolidin-1-yl)ethanone]
401 nM | COc1ccccc1OCc1nnc([C@@H]2CCCN2C(=O)C(F)(F)C2(O)CC(C)(C)CC(C)(C)C2)o1 [Compound 25]
